Test results as given in PubChem BioAssay (NCI).
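At the GI50, growth is halved. At the TGI there is no net growth.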

Key:
Experiment in all cases: inhibition of tumour cell growth, NCI panel, 384-well format
[1] = system: HCT-116 colon
[2] = system: SN12C renal
[3] = system: COLO 205 colon
[4] = system: M14 melanoma
[5] = system: SNB-75 CNS
[6] = system: UO-31 renal
[7] = system: CCRF-CEM leukemia
[8] = system: EKVX NSCLC
[9] = system: SK-MEL-5 melanoma
[10] = system: HS 578T breast
[11] = system: SF-268 CNS
[12] = system: IGROV1 ovarian
[13] = system: A549 NSCLC
[14] = system: NCI-H322M lung
[15] = system: SNB-19 CNS
[16] = system: HOP-62 NSCLC
[17] = system: OVCAR-4 ovarian
[18] = system: SF-539 CNS
[19] = system: NCI/ADR-RES ovarian
[20] = system: TK-10 renal
[21] = system: SK-MEL-28 melanoma
[22] = system: SW-620 colon
[23] = system: LOX IMVI melanoma
[24] = system: UACC-62 melanoma
[25] = system: RPMI-8226 leukemia
[26] = system: K-562 leukemia
[27] = system: U251 glioblastoma
[28] = system: KM12 colon
[29] = system: HCC-2998 colon

COc1cc(C(=O)N[C@@H]2CCCN(C)C2)ccc1Nc1ncc2c(n1)N(C1CCCC1)CC(C)(C)C(=O)N2C
GI50 [1]: 0.0394 µM | TGI [1]: 0.705 µM | GI50 [2]: 0.0942 µM | TGI [2]: 2.21 µM | GI50 [3]: 0.0195 µM | TGI [3]: 0.0714 µM | GI50 [4]: 0.0273 µM | TGI [4]: 0.136 µM | GI50 [5]: 0.285 µM | TGI [5]: 2.61 µM | GI50 [6]: 0.345 µM | TGI [6]: 1.39 µM | TGI [7]: 0.0213 µM | GI50 [8]: 0.119 µM | TGI [8]: 1.88 µM | GI50 [9]: 0.0253 µM | TGI [9]: 0.133 µM | GI50 [10]: 0.0169 µM | TGI [10]: 0.089 µM | GI50 [11]: 0.0105 µM | TGI [11]: 0.047 µM | GI50 [12]: 0.0457 µM | TGI [12]: 1.67 µM | GI50 [13]: 0.0387 µM | TGI [13]: 1.09 µM | GI50 [14]: 0.51 µM | TGI [14]: 3.73 µM | GI50 [15]: 0.0501 µM | TGI [15]: 1.85 µM | GI50 [16]: 0.0317 µM | TGI [16]: 0.598 µM | GI50 [17]: 1.11 µM | TGI [17]: 2.78 µM | GI50 [18]: 0.036 µM | TGI [18]: 0.267 µM | GI50 [19]: 0.695 µM | TGI [19]: 2.34 µM | GI50 [20]: 1.17 µM | TGI [20]: 4.97 µM | GI50 [21]: 0.128 µM | TGI [21]: 0.911 µM | GI50 [22]: 0.0205 µM | TGI [22]: 0.114 µM | GI50 [23]: 0.0341 µM | TGI [23]: 0.201 µM | GI50 [24]: 0.0337 µM | TGI [24]: 0.252 µM | GI50 [25]: 0.0316 µM | TGI [25]: 0.101 µM | GI50 [26]: 0.0191 µM | TGI [26]: 0.0554 µM | GI50 [27]: 0.0467 µM | TGI [27]: 1.44 µM | GI50 [28]: 0.017 µM | TGI [28]: 1.05 µM | GI50 [29]: 0.0218 µM | TGI [29]: 0.0942 µM
